Assay results as given in US20110263451A1, “BIOLOGICAL MARKERS PREDICTIVE OF RHEUMATOID ARTHRITIS RESPONSE TO LYMPHOTOXIN ANTAGONISTS” (GENENTECH, INC, priority 2008, published 2011).

System: human CD4′ Th1 cells
Assay: TAPI-1 effect on soluble cytokines shed into culture supernatant of re-activated Th1 cells
Format: cell-based
Experimental: High Bind 96-well microtiter plates (Meso Scale Discovery (MSD), Gaithersburg, Md.) were spotted with 5 uL goat anti-human LTα clone AF211 (R&D Systems) diluted in PBS/0.05% Tween 20 (PBS/Tween) to 2 μg/ml, and incubated for one hour at room temperature. Wells were blocked with 150 uL PBS+5% BSA for 1-2 hours with agitation. Plates were washed 6× with PBS/Tween and a titration curve of recombinant human LTα3 (Genentech Inc.) controls, and test samples diluted in high salt assay diluent (HSAD: PBS, 0.5% BSA, 0.05% Tween 20, 0.25% CHAPS, 5 mM EDTA, 0.20% BgG, 0.35M NaCl, 10% FBS) were added at 25 μl/well and incubated for 2 hours with agitation. […] Plates were washed, 500 ng/mL Strepavidin-Sulgo-TAG® (MSD) diluted in AD was added at 25 μL/well, and plates were incubated for 30 minutes with agitation. Plates were washed with PBS/Tween 6×, and 150 μl/well of Read Buffer T (MSD) diluted 1:2 in H20 was added to wells. Plates were read on an MA6000 Sector™ Imager (MSD) according to manufacturer's. A weighted 4-parameter fit standard curve was plotted using XLFit (Guildford, UK) and values of unknowns were extrapolated.
Soluble human TNF-α, was detected using a human 96-well TNF-α kit (K111BHA-4, Meso Scale Discovery) according to manufacturer's instructions.
Total human CD4^+ T cells were isolated from PBMC with a CD4^+ T cell isolation kit (Miltenyi Biotec). Cells were cultured in complete DMEM media (DMEM supplemented with 10% FBS, 2 mM glutamine, 2 μM 2-ME, 1 mM sodium pyruvate, 100 U/ml penicillin and 100 μg/ml streptomycin) in presence of 5 μg/ml anti-CD3 mAb and 2 μg/ml anti-CD28 mAb. Human Th subset polarization conditions were as follows: Th0: 5 μg/ml anti-hIL-12, 5 μg/ml anti-hIFN-γ 1 μg/ml anti-hIL-4; Th1: 1 ng/ml rhIL-12, 10 ng/ml rhIFN-γ, 1 μg/ml anti-hIL-4; Th2: 5 ng/ml rhIL-4, 5 μg/ml anti-hIL-12, 6 μg/ml anti-hIFN-γ; Th17: 10 ng/ml rhIL-23, 10 μg/ml anti-hIL-12, 10 μg/ml anti-hIFN-γ. T cells were re-stimulated with 5 μg/mL anti-CD3 and 2 μg/mL anti-CD28 with indicated amount of TNFα protease inhibitor 1 (TAPI-1) (Peptides International) or DMSO as control.
At day1 and day2 after re-stimulation, cells were collected for FACS and RNA preparation; culture supernatants were collected for LT and TNF-α quantitation.
To determine if LTαβ complexes were shed by metalloproteinase cleavage, the TNFα protease inhibitor 1 (TAPI-1), known to inhibit the cleavage of TNFα by ADAM17 protease, was tested on human CD4′ Th1 cells. Culture supernatants were analyzed for solLTαβ, LTα3 and TNFα one day post re-activation in the presence or absence of TAPI-1 (FIGS. 2A & B). T cells were collected, cultured and polarized as in Example 2 above.

[1] = Th1 cells, 10 or 50 μM TAPI-1, 1 day post re-activation

## CC(C)C[C@H](CC(=O)NO)C(=O)N[C@@H](Cc1ccc2ccccc2c1)C(=O)N[C@@H](C)C(=O)NCCN [TAPI-1]
TAPI-1 treated Th1 cells, FACS, data not shown
  increase in cell surface LT: not accompanied by an increase in cell surface LT
[1]
  decrease of shed TNFα supernatant concentrations: 3-8 fold
  secreted LTα3 in supernatant: not affected
Th1 cells, 10 or 50 μM TAPI-1, 1 day post re-activation, dose dependent
  decrease of soluble LTαβ levels in supernatants of re-activated cells: 2-7 fold
